Measurements from EP0998931A1, “REMEDIES FOR DRY EYE” (priority 1997, dated 1998).
Like-named read-outs stand apart in the source and are kept apart here.

Test system: TG-I m RNA
Experiment: Expression amounts of TG-I mRNA by RT-PCR in cultured corneal epithelial cells (G3PDH internal standard)
Assay type: cell-based, human
Details: for inhibition at 1 µM: read-out: inhibition (of TG-I m RNA expression)
Experimental: Glyceraldehyde-3-phosphoric acid dehydrogenase (G3PDH) was used as an internal standard in consideration of scatter of template total RNA amounts.
Cultured SV40 immortalized human corneal epithelial cells (1 × 10^6 cells) were cultured in a culture medium (DMEM/F12) containing a test compound under a condition of 37°C and 5% CO2 for 72 hours. After culturing, total RNA was extracted according to the AGPC method. Then, RT-PCR was carried out using a primer which is specific for TG-I m RNA or G3PDH m RNA using a Takara RNA-PCR kit (AMV). PCR products were electrophoresed on 1% agarose gel, and bands were detected with a transilluminator. Cells cultured in a culture medium containing no test compound in the same manner were used as a control.
The expression amounts of TG-I m RNA were calculated according to the following equation 1 so that an expression amount in the control was 100. Expression amount = (B/A) × 100 [formula] • A: A band area of a TG-I amplified fragment on the basis of a band area of a G3PDH amplified fragment in the control • B: A band area of a TG-I amplified fragment on the basis of a band area of a G3PDH amplified fragment in the presence of the test compound

| Compound | inhibition of TG-I m RNA expression, dependence on concentration (10 nM, 100 nM and 1000 nM) | mrna remaining at 0.01 µM (Corneal epithelial cell, 10 nM test compound, 72 hours culture, SV40 immortalized human corneal epithelial cells, control = 100, read-out: Expression amount) [%] | mrna remaining at 0.1 µM (Corneal epithelial cell, 100 nM test compound, 72 hours culture, SV40 immortalized human corneal epithelial cells, control = 100, read-out: Expression amount) [%] | mrna remaining at 1 µM (Corneal epithelial cell, 1000 nM test compound, 72 hours culture, SV40 immortalized human corneal epithelial cells, control = 100, read-out: Expression amount) [%] | inhibition at 0.01 µM (Homo sapiens, Corneal epithelial cell, 72 h, concentration of 10 nM) [%] | mrna remaining at 0.01 µM (Homo sapiens, Corneal epithelial cell, 72 h, concentration of 10 nM, relative to control, read-out: expression amounts of TG-I m RNA in the corneal epithelial cells) [%] | inhibition at 0.1 µM (Homo sapiens, Corneal epithelial cell, 72 h, concentration of 100 nM) [%] | mrna remaining at 0.1 µM (Homo sapiens, Corneal epithelial cell, 72 h, concentration of 100 nM, relative to control, read-out: expression amounts of TG-I m RNA in the corneal epithelial cells) [%] | inhibition at 1 µM (Homo sapiens, Corneal epithelial cell, 72 h, concentration of 1000 nM) [%] | mrna remaining at 1 µM (Homo sapiens, Corneal epithelial cell, 72 h, concentration of 1000 nM, relative to control, read-out: expression amounts of TG-I m RNA in the corneal epithelial cells) [%] | mrna remaining at 1 µM (Homo sapiens, Corneal epithelial cell, 72 h, read-out: Expression amount) [%] | mrna remaining at 1 µM (Homo sapiens, Corneal epithelial cell, 72 h, read-out: expression amounts of TG-I m RNA in the corneal epithelial cells) [%] | inhibition at 1 µM (Homo sapiens, Corneal epithelial cell, 72 h) [%] | inhibitory effect relative to that of 1α , 24 (R)-dihydroxyvitamin D3 (comparative compound at 1000 nM) |
| --- | --- | --- | --- | --- | --- | --- | --- | --- | --- | --- | --- | --- | --- | --- |
| C=C1/C(=C\C=C2/CCC[C@]3(C)[C@@H]([C@H](C)CC[C@@H](O)C(C)C)CC[C@@H]23)C[C@@H](O)C[C@@H]1O [1α , 24 (R)-Dihydroxyvitamin D3] | concentration-dependent inhibition was observed | 66 | 39 | 22 | 34 | 66 | 61 | 39 | 78 | 22 | – | – | – | – |
| C=C1/C(=C\C=C2/CCC[C@]3(C)[C@@H]([C@H](C)CCCC(C)(C)O)CC[C@@H]23)C[C@@H](O)C[C@@H]1O [1α , 25-Dihydroxyvitamin D3] | – | – | – | – | – | – | – | – | – | – | 48 | 48 | 52 | one tenth or less |
